According to patent US6436421B1, “Pesticide compositions” (priority 1997, dated 2002):
Where two headings read alike, the source gives them in different places.

Legend:
[1] = type: physicochemical
Description: One method to evaluate the efficacy of a pesticide adjuvant is to measure its affect on the ability of the pesticide composition to resist wash-off from a surface. One skilled in the art will recognize that a pesticide which remains on the surface of a plant will be expected to have increased efficacy.
A suspension of the pesticide formulation was prepared by adding a premix of water and surfactant, with and without the polymer additives, followed by vigorous shaking of the mixtures by hand. Pieces of Parafilm™M laboratory film, a very soft, flexible, and hydrophobic film, were taped to plastic petrie dishes. The suspensions were sprayed with an automated sprayer as the petrie dishes with attached film were moved at a standard rate below the sprayer. The spray residues were allowed to dry, and a second application of spray was applied. One set of films was exposed, at an inclination of 45 degrees, to approximately 25 mm of water applied by a spray bar (equipped with TX-4 cone-type spray nozzles) that moved back and forth over the samples for a period of about 1 hour. The exposed films were allowed to dry. Another set of films was not exposed to water.
Infra-red spectra of the films were obtained by an Attenuated Total Reflection (ATR) technique. The films were pressed against a Zinc Selenide crystal that had been cleaned previously with methanol. Spectra were recorded with a Spectratech Allied Systems Fourier Transform Infra-Red Spectrometer, and stored in a computer. Peaks associated with pesticide residue were identified by inspection and peak areas were calculated by computer (Pesticide Peak Area, “PA”). A corresponding area for a Parafilm™ peak as similar as possible in peak location and size (in the same spectrum) was calculated (Film Peak Area, “FA”). […] A measure of the pesticide on the surface “P” was derived from the following calculation:
A relative measure of the amount of pesticide remaining after the above exposure to water was then derived from the following calculation: [formula]
Although the intensity of spectral peaks recorded with the ATR technique are very dependent on details of contact with the film, by obtaining a ratio of the pesticide peak to the film peak in the same spectral recording, different spectra can be compared with details of contact being compensated for, since they will have similar effects on the intensity of the pesticide absorption and the film absorption. The intensity of the pesticide peak relative to the film peak will depend on the degree of coverage of the film by the pesticide. To maximize coverage, the spraying was conducted twice. Furthermore, a wetting agent (surfactant) was included in the premix to promote wetting of the film by the spray droplets. Since exposure to water can result in re-distribution of the pesticide as well as wash-off of the pesticide, the measure of the amount remaining is only relative.
In all cases, a measured amount of pesticide was mixed with 270 grams of deionized water and 30 grams of 0.5% Silwet L-77 surfactant. This premix was divided into 50 gram portions. One portion was sprayed without adding polymer. For mixes containing polymer, 66.6 milligrams powder polymer or 1.32 g of a 5% solids dilution of the emulsion polymer were added to the 50 grams of premix.
TX-2 nozzle 12 inches above laboratory film.
58 psi (delivers 150 cc/minute).
Laboratory film moves at 1 mile/hour.
Fan nozzle 14 inches above laboratory film.
29 psi (Spray 15 cc with two passes over laboratory film at a rate to give 25 gallons/acre).

Beet Armyworm larvae = experiment: Beet Armyworm control on potted rice plants using tebufenozide; type: in vivo
Text: Rice plants grown in pots were sprayed with one of two different versions of a 300 parts per million (based on active ingredient level) suspension of tebufenozide in water. In one version, the tebufenozide was supplied as Mimic® 10 W insecticide, a wettable powder, from Rohm and Haas Company. In the second version, approximately 30% by weight of the carrier in the Mimic® 10 W insecticide was replaced with Powder V from the above examples and approximately 10% by weight of the clay carrier was replaced by Aerosol®OTB surfactant. One portion of each of the sprayed plant samples was subjected to approximately 25 millimeters of water applied by a spray bar to simulate rain. The plants were cut and fed to Beet Armyworm larvae. Percent mortality was then evaluated.

beet armyworm = experiment: Beet Armyworm control under field conditions on Chinese kale; type: in vivo; settings: 300 g of tebufenozide per hectare, compared to untreated control plot
Description: Each of two different plots of Chinese kale grown under typical field conditions was treated with one of the two tebufenozide formulations described above at an application rate of 300 g of tebufenozide per hectare in 750 liters of water per hectare. The percent beet armyworm mortality in each plot was compared to an untreated control plot.

[2] = test system: Cercospora arachidicola (Early Leaf Spot); experiment: Peanut field test of disease control with mancozeb fungicide; type: in vivo
Description: (§1) For grapes, single plant plots with three replicates/treatment were treated at seven day intervals, with a total of seven applications. Treatments were water-based spray mixtures of mancozeb with or without polymer additives added to the water shortly before spraying. The mixtures were applied with a backpack sprayer using carbon dioxide pressure atomization (45 psi) with a boom having three D3 (Cone) nozzles, at a rate of 640 liters/hectare. The treatments included a control with no fungicide applied, a full rate of mancozeb without additive (2.8 kg active ingredient/hectare), and a half rate of mancozeb (1.4 kg active ingredient/hectare) with or without additives. The polymer additives were used at ⅓ kg. of additive solids/kg. of active ingredient. The mancozeb formulation was a wettable powder with 75% active ingredient.
(§2) Assessments of percent infection (of grape downy mildew caused by Plasmopara viticola) of foliage were made 7 days after treatment # 7 (7DAT#7). These assessments are tabulated below. Data were analyzed by Duncan's multiple range test, using P=0.05.
Peanuts were evaluated the same as grapes except that the plots were 1 meter×5 meter (1 row), with 4 replicates per treatment, there were 9 applications, the boom had five D2 (C45) nozzles, the full rate of mancozeb was 1.6 kg active ingredient/hectare, the final assessment was 23 days after treatment #9 (23DAT#9), and the predominant disease at this time was Cercospora arachidicola (Early Leaf Spot).
(§3) Three different solid redispersible powders were evaluated; Powders I and II from the previous example and powder V, an all acrylic copolymer (Drycryl™DP-2904 redispersible powder, a cement modifier of the Rohm and Haas Company). Three different emulsion polymers were evaluated for comparison; Emulsion IV from the previous example; Emulsion VI, a poly(vinylacetate) emulsion (Rovace™ 117 emulsion from the Rohm and Haas Company, used as a general purpose adhesive component); and Emulsion VII, an acrylic emulsion polymer (Rhoplex™ 2438 emulsion from the Rohm and Haas Company, a component of elastomeric wall coatings).
(§4) In several of the evaluations, a surfactant was added to the spray mixture. When used, the surfactant was a solid powder of 90% dioctyl sodium sulfosuccinate and 10% sodium benzoate (Aerosol® OTB surfactant from Cytec Company).

[3] = test system: grape downy mildew caused by Plasmopara viticola; experiment: Grape field test of disease control with mancozeb fungicide; type: in vivo
Description: as §1, §2, §3, §4

[4] = Half rate, Emulsion IV, no surfactant
[5] = Half rate, Emulsion VI, no surfactant
[6] = Half rate, Emulsion VI, with surfactant
[7] = Half rate, Emulsion VII, no surfactant
[8] = Half rate, Powder I, no surfactant
[9] = Half rate, Powder II, no surfactant
[10] = Half rate, Powder II, with surfactant
[11] = Half rate, Powder V, no surfactant

Compound | % AI Retained After One Inch Spray-Bar Rain, M (mean) ([1]; No Polymer) | % AI Retained After One Inch Spray-Bar Rain, M (mean) ([1]; with Emulsion IV) | % AI Retained After One Inch Spray-Bar Rain, M (mean) ([1]; with Powder I) | % AI Retained After One Inch Spray-Bar Rain, M (mean) ([1]; with Powder II) | % AI Retained After One Inch Spray-Bar Rain, M (mean) ([1]; with Powder III) | further results
CNC(=O)Oc1cccc2c1OC(C)(C)C2 [carbofuran] | 3% | 9% | 39% | 23% | 16% | –
CN(C)C(CSC(N)=O)CSC(N)=O [cartap] | 4% | 3% | 5% | 8% | 8% | –
dinitro-(1-methylheptyl) phenyl crotonate [dinocap] | 3% | 40% | 49% | 47% | 19% | –
manganese ethylenebisdithiocarbamate [maneb] | 16% | 103% | 76% | 108% | 86% | –
CNC(=O)Oc1cccc2ccccc12 [carbaryl] | 25% | 40% | 31% | 32% | 27% | –
CCOc1cc(Oc2ccc(C(F)(F)F)cc2Cl)ccc1[N+](=O)[O-] [oxyfluorfen] | 17% | 152% | 66% | 137% | 55% | –
CCc1ccc(C(=O)NN(C(=O)c2cc(C)cc(C)c2)C(C)(C)C)cc1 [tebufenozide] | 40% | 59% | 71% | 67% | 40% | Beet Armyworm Mortality (%) (Beet Armyworm larvae; With Rain (approximately 25 millimeters of water by spray bar), 300 parts per million suspension): 28%; Beet Armyworm Mortality (%) (Beet Armyworm larvae; Without Rain, rice plants sprayed with 300 parts per million suspension): 90%; Beet Armyworm Control (%) (beet armyworm): 35%
CCCCC(C#N)(Cn1cncn1)c1ccc(Cl)cc1 (stereo not shown) [myclobutanil] | 13% | 74% | 56% | 77% | 44% | –
N#CC(CCc1ccc(Cl)cc1)(Cn1cncn1)c1ccccc1 (stereo not shown) [fenbuconazole] | 9% | 83% | 63% | 82% | 48% | –
CCC(=O)Nc1ccc(Cl)c(Cl)c1 [propanil] | 9% | 18% | 38% | 27% | 21% | –
[Cu+2].[OH-].[OH-] [copper hydroxide] | 20% | 11% | 22% | 80% | 21% | –
N#Cc1c(Cl)c(Cl)c(Cl)c(C#N)c1Cl [chlorothalonil] | 2% | 12% | 16% | 54% | 4% | –
mancozeb | – | – | – | – | – | Infection on Peanut 23DAT#9 ([2]; Full rate (1.6 kg active ingredient/hectare), no polymer additive, no surfactant): 27.5 cd percent; Infection on Peanut 23DAT#9 [2, 4]: 25.0 de percent; Infection on Peanut 23DAT#9 [2, 5]: 22.5 ef percent; Infection on Peanut 23DAT#9 [2, 6]: 13.8 h percent; Infection on Peanut 23DAT#9 [2, 7]: 21.3 f percent; Infection on Peanut 23DAT#9 [2, 8]: 23.8 ef percent; Infection on Peanut 23DAT#9 [2, 9]: 32.5 c percent; Infection on Peanut 23DAT#9 [2, 10]: 17.5 g percent; Infection on Peanut 23DAT#9 [2, 11]: 22.5 ef percent; Infection on Peanut 23DAT#9 ([2]; Half rate, no polymer additive, no surfactant): 41.3 b percent; Infection on Grape 7DAT#7 ([3]; Full rate (2.8 kg active ingredient/hectare), no polymer additive, no surfactant): 41.7 cd percent; Infection on Grape 7DAT#7 ([3]; Half rate (1.4 kg active ingredient/hectare), no polymer additive, no surfactant): 63.3 b percent; Infection on Grape 7DAT#7 [3, 4]: 38.3 de percent; Infection on Grape 7DAT#7 [3, 5]: 43.3 cd percent; Infection on Grape 7DAT#7 [3, 6]: 31.7 fg percent; Infection on Grape 7DAT#7 [3, 7]: 41.7 cd percent; Infection on Grape 7DAT#7 [3, 8]: 46.7 c percent; Infection on Grape 7DAT#7 [3, 9]: 43.3 cd percent; Infection on Grape 7DAT#7 [3, 10]: 28.3 g percent; Infection on Grape 7DAT#7 [3, 11]: 46.7 c percent
OC(c1ccc(Cl)cc1)(c1ccc(Cl)cc1)C(Cl)(Cl)Cl [dicofol] | 18% | 95% | 76% | 62% | 62% | –
